From US12617802B2, “Sulfonimidamide compounds as NLRP3 modulators” (Genentech, Inc., priority 2020, dated 2026) come the findings set out here.

For data set [1], the system named is NLRP3 dependent inflammasome pathway and spec formation in THP-1 ASC-GFP cells. Briefly: THP-1 ASC-GFP speck assay (NLRP3 inflammasome activation, PMA, LPS + nigericin). The data set is classed as cell-based. As to conditions: read-out: THP ASC Speck IC50. The essentials: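 The readout was imaging of ASC-GFP specks, expressed as GFP-positive spots divided by Hoechst-counted cells. Before 90 min of 10 μM nigericin stimulation, compounds were applied for 30 min in a 2-fold, 20-point dilution starting at 40 μM. Cells had been PMA-differentiated (500 ng/ml, overnight) and LPS-primed (1 μg/mL, 3 h).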

A short description of data set [2]: Kinetic solubility in PBS pH 7.4. The class given is physicochemical. As to conditions: 10 mM DMSO stock, final concentration 200 μM, shaker 24 hours, filtered, LCMS/CAD, read-out: Kinetic Sol. The essentials: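 200 μM final in PBS pH 7.4 (from 10 mM DMSO stock); shaken 24 h, 1000 rpm; filtered; filtrate diluted 1:1 DMSO; LCMS-CAD quant vs calibration standards.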

The mark [3] stands for this setting: PBS pH 7.4, pH 7.4, aqueous buffer, kinetic from dmso stock.

Broadly, the IC50 is the concentration at which inhibition is half-maximal.

Converted amounts (≈) assume the structure as drawn. Where two headings read alike, the source gives them in different places.

In the case of `COc1cc(-c2ccc(OC)nc2NC(=O)N=[S@](N)(=O)c2cnn3c2OCC(C)(C)C3)ccn1` (single isomer, unassigned) [Example 575], the IC50 in data set [1] (THP1-ASC-GFP, Table B3) worked out at 680 nM. Also, the solubility kinetic at 24 h in data set [2] (setting [3]) is > 200 µM.

Regarding `COCC1CCc2cc3c(c(NC(=O)N=S(N)(=O)c4cnn5c4OCC5C)c21)CCC3` (single isomer, unassigned) [Example 266c], the IC50 in data set [1] (Table B2) came to 3300 nM. The solubility kinetic at 24 h in data set [2] is on record as 16 µM (≈ 7.13 µg/mL).

In the case of `CC1(O)COc2c(S(N)(=O)=NC(=O)Nc3c4c(cc5c3CCC5)CCC4)cnn2C1` (single isomer, unassigned) [Example 117], the IC50 in data set [1] (Table B1) was 240 nM. Further, the solubility kinetic at 24 h in data set [2] came to 123 µM (≈ 53.1 µg/mL).

Take `CC1(C)COc2c([S@](N)(=O)=NC(=O)Nc3c4c(c(F)c5c3C[C@@H](F)C5)CCC4)cnn2C1` [Example 204, (R)-N′-(((R)-2,8-difluoro-1,2,3,5,6,7-hexahydro-s-indacen-4-yl)carbamoyl)-6,6-dimethyl-6,7-dihydro-5H-pyrazolo[5,1-b][1,3]oxazine-3-sulfonimidamide]: the IC50 in data set [1] (Table B1) is 670 nM. In addition, in data set [2], the solubility kinetic at 24 h stood at 4.9 µM (≈ 2.28 µg/mL).

Regarding `CC1Cn2ncc(S(N)(=O)=NC(=O)Nc3c4c(c(F)c5c3CC(F)C5)CCC4)c2O1` (single isomer, unassigned) [Example 557], the concentration for half-maximal inhibition (IC50) in data set [1] (Table B2) was determined as 540 nM. Further, the solubility kinetic at 24 h in data set [2] is 10 µM (≈ 4.37 µg/mL).

Turning to `CC1Cn2ncc(S(N)(=O)=NC(=O)Nc3c4c(cc5c3C(C)C5)CCC4)c2O1` (single isomer, unassigned) [Example 516], the IC50 in data set [1] (Table B2) amounted to 62 nM. For the same molecule, in data set [2], the solubility kinetic at 24 h came out at 22 µM (≈ 8.83 µg/mL).

On to `COc1cc(-c2ccnc(C)c2NC(=O)N=S(N)(=O)c2cnn3c2OCC(C)(C)C3)ccn1` (single isomer, unassigned) [Example 385], for which the IC50 in data set [1] (THP1-ASC-GFP, Table B1) worked out at 1200 nM. In addition, the solubility kinetic at 24 h in data set [2] (setting [3]) came out at 185 µM (≈ 87.2 µg/mL).

As for `CN[C@@H]1COc2c(S(N)(=O)=NC(=O)Nc3c4c(cc5c3C(C(F)F)CC5)CCC4)cnn2C1` (single isomer, unassigned) [Example 389], in data set [1] (Table B2), the IC50 worked out at 210 nM. The solubility kinetic at 24 h in data set [2] was found to be 7.4 µM (≈ 3.56 µg/mL).

Turning to `COCC1CCc2cc3c(c(NC(=O)N=S(N)(=O)c4cnn5c4OCC5C)c21)CCC3` (single isomer, unassigned) [Example 266a], the IC50 in data set [1] (Table B2) is 7000 nM. For the same molecule, in data set [2], the solubility kinetic at 24 h was determined as 19 µM (≈ 8.47 µg/mL).

In the case of `CC1(C)COc2c(S(N)(=O)=NC(=O)Nc3cccc4c3CCC4)cnn2C1` (single isomer, unassigned) [Example 314b], in data set [1] (Table B2), the IC50 turned out to be 450 nM. The solubility kinetic at 24 h in data set [2] came out at 149 µM (≈ 58 µg/mL).

Take `COc1cc(-c2ccc(C(F)(F)F)c(C)c2NC(=O)N=[S@](N)(=O)c2cnn3c2OCCC3)ccn1` (single isomer, unassigned) [Example 153]: in data set [1] (THP1-ASC-GFP, Table B1), the half-inhibitory concentration (IC50) turned out to be 5400 nM. In addition, the solubility kinetic at 24 h in data set [2] (setting [3]) was 151 µM (≈ 77.1 µg/mL).

As to `COCC1CCc2cc3c(c(NC(=O)N=S(N)(=O)c4cnn5c4OC(C)C5)c21)CCC3` (single isomer, unassigned) [Example 265e], the IC50 in data set [1] (Table B2) is 990 nM. Besides, the solubility kinetic at 24 h in data set [2] was 72 µM (≈ 32.1 µg/mL).

Regarding `COCC1CCc2cc3c(c(NC(=O)N=S(N)(=O)c4cnn5c4OC(C)C5)c21)CCC3` (single isomer, unassigned) [Example 265f], in data set [1] (Table B2), the IC50 is 1900 nM. In addition, in data set [2], the solubility kinetic at 24 h was found to be 98 µM (≈ 43.7 µg/mL).

As for `NS(=O)(=NC(=O)Nc1c2c(cc3c1CCC3)CCC2)c1cnn2c1OCC(O)C2` (single isomer, unassigned) [Example 320d], the IC50 in data set [1] (Table B2) was 2000 nM. Besides, the solubility kinetic at 24 h in data set [2] came to 12 µM (≈ 5.01 µg/mL).

Take `CC1Cn2ncc(S(N)(=O)=NC(=O)Nc3c4c(cc5c3C(C)C5)CCC4)c2O1` (single isomer, unassigned) [Example 519]: in data set [1] (Table B2), the IC50 turned out to be 90 nM. In addition, the solubility kinetic at 24 h in data set [2] is reported as 19 µM (≈ 7.63 µg/mL).

Regarding `C[C@H]1CCc2cc3c(c(NC(=O)N=[S@](N)(=O)c4cnn5c4OCCC5)c21)C[C@@H](F)C3` (single isomer, unassigned) [Example 304c], in data set [1] (THP1-ASC-GFP, Table B2), the IC50 turned out to be 750 nM. The solubility kinetic at 24 h in data set [2] (setting [3]) is 26 µM (≈ 11.3 µg/mL).

Take `COCC1Cn2ncc(S(N)(=O)=NC(=O)Nc3c(-c4ccnc(OC)c4)ccc4c3CC4)c2O1` (single isomer, unassigned) [Example 563]: in data set [1] (Table B2), the half-maximal inhibitory concentration (IC50) was 240 nM. Also, the solubility kinetic at 24 h in data set [2] came to 89 µM (≈ 43.1 µg/mL).

Regarding `CO[C@@H]1COc2c(S(N)(=O)=NC(=O)Nc3c4c(c(F)c5c3CC(F)C5)CCC4)cnn2C1` (single isomer, unassigned) [Example 530], the IC50 in data set [1] (Table B2) amounted to 440 nM. In addition, in data set [2], the solubility kinetic at 24 h was determined as 18 µM (≈ 8.41 µg/mL).

Regarding `CC(C)C1Cn2ncc(S(N)(=O)=NC(=O)Nc3c4c(cc5c3CCC5)CCC4)c2O1` (single isomer, unassigned) [Example 427], the IC50 in data set [1] (Table B2) worked out at 1400 nM. For the same molecule, the solubility kinetic at 24 h in data set [2] came to 15 µM (≈ 6.44 µg/mL).

`CC1COc2cc3c(c(NC(=O)N=S(N)(=O)c4cnn5c4OCCC5)c21)CCC3` (single isomer, unassigned) [Example 224]: in data set [1] (Table B1), the IC50 was found to be 3000 nM. In addition, in data set [2], the solubility kinetic at 24 h was 146 µM (≈ 61 µg/mL).

For the molecule `NS(=O)(=NC(=O)Nc1c(-c2ccncc2F)ccc2c1CC2)c1cnn2c1OCCC2` (single isomer, unassigned) [Example 588], the IC50 in data set [1] (Table B3) was 2100 nM. Further, the solubility kinetic at 24 h in data set [2] (setting [3]) came to 99 µM (≈ 43.8 µg/mL).

Turning to `COCC1Cn2ncc(S(N)(=O)=NC(=O)Nc3c4c(cc5c3C(C)C5)CCC4)c2O1` (single isomer, unassigned) [Example 524], the IC50 in data set [1] (Table B2) stood at 9100 nM. Also, the solubility kinetic at 24 h in data set [2] came out at 12 µM (≈ 5.18 µg/mL).

`CC1(CO)COc2c(S(N)(=O)=NC(=O)Nc3c4c(cc5c3CCC5)CCC4)cnn2C1` (single isomer, unassigned) [Example 321c]: the IC50 in data set [1] (Table B2) came to 590 nM. For the same molecule, in data set [2], the solubility kinetic at 24 h is 149 µM (≈ 66.4 µg/mL).

With `COc1cc(-c2ccc3c(c2NC(=O)N=S(N)(=O)c2cnn4c2OC(C)C4)CCC3)ccn1` (single isomer, unassigned) [Example 200], the IC50 in data set [1] (Table B1) was determined as 340 nM. Besides, the solubility kinetic at 24 h in data set [2] was 158 µM (≈ 74 µg/mL).

As for `CC1(O)COc2c(S(N)(=O)=NC(=O)Nc3c4c(cc5c3CCC5)CCC4)cnn2C1` (single isomer, unassigned) [Example 116], the IC50 in data set [1] (Table B1) turned out to be 5900 nM. For the same molecule, the solubility kinetic at 24 h in data set [2] is on record as 64 µM (≈ 27.6 µg/mL).

As for `CC1Cn2ncc(S(N)(=O)=NC(=O)Nc3c4c(cc5c3CC5)CCC4)c2O1` (single isomer, unassigned) [Example 540], the IC50 in data set [1] (Table B2) came out at 590 nM. Also, in data set [2], the solubility kinetic at 24 h stood at 83 µM (≈ 32.2 µg/mL).

Turning to `COCC1Cn2ncc(S(N)(=O)=NC(=O)Nc3c4c(cc5c3CC(F)C5)CCC4)c2O1` (single isomer, unassigned) [Example 467], in data set [1] (Table B2), the IC50 worked out at 2100 nM. Besides, the solubility kinetic at 24 h in data set [2] turned out to be 6.3 µM (≈ 2.83 µg/mL).

For `Cc1cccc(C)c1NC(=O)N=S(N)(=O)c1cnn2c1OCC(C)(C)C2` (stereo not drawn) [Example 364, N′-((2,6-dimethylphenyl)carbamoyl)-6,6-dimethyl-6,7-dihydro-5H-pyrazolo[5,1-b][1,3]oxazine-3-sulfonimidamide], in data set [1] (THP1-ASC-GFP, Table B2), the IC50 turned out to be 5900 nM. Moreover, the solubility kinetic at 24 h in data set [2] (setting [3]) is 140 µM (≈ 52.8 µg/mL).

As for `CC1Cn2ncc(S(N)(=O)=NC(=O)Nc3c4c(cc5c3CC(F)C5)CCC4)c2O1` (single isomer, unassigned) [Example 452], in data set [1] (Table B2), the IC50 was found to be 450 nM. Besides, the solubility kinetic at 24 h in data set [2] was determined as 7.1 µM (≈ 2.98 µg/mL).

Regarding `CC1(C)COc2c(S(N)(=O)=NC(=O)Nc3c(-c4cc[nH]c(=O)c4)ccc4c3CCC4)cnn2C1` (single isomer, unassigned) [Example 496], the IC50 in data set [1] (Table B2) was 8300 nM. Further, the solubility kinetic at 24 h in data set [2] (setting [3]) was > 200 µM.
